Target: human full length PIK3CA Wild-type (p110α/p85α complex) (Homo sapiens (Human), UniProt P42336)
Assay: PI3K-Alpha kinase (PIK3CA) activity, wild-type, Transcreener ADP2 FI assay
Conditions: PI3K-α (PIK3CA) wild-type, biochemical
Method: (§1) PI3K-Alpha kinase (PIK3CA) activity, wild-type and H1047R mutant and determining IC50 values for inhibitors
(§2) Recombinant, catalytically active human full length PIK3KA Wild-type and H1047R mutant were purchased as 1:1 complex of N-terminal 6×his tagged p110<(catalytic) and untagged p85<(regulatory subunit) from EMD Millipore Sigma (cat. no. 14-602M and 14-792M, respectively). The enzyme stocks were diluted to 5× stocks in buffer (20 mM HEPES pH 7.4, 100 mM NaCl, 0.5 mM EGTA, 0.01% triton-x-100) just before use. PIP2diC8 (Avanti Polar Lipids Inc., cat. no. 850185) or phosphoinositol-4,5-bisphosphate with phosphoserine (PIP2:PS) membrane (Thermo Fisher Scientific, cat. no. PV5100) was used as lipid substrates. PIP2diC8 lyophilized powder and PIP2:PS (1:19) membrane stock (1 mM in PIP2) were separately dissolved in milliQ water to a concentration of 250 uM and stored in −20° C. 10 mM stocks of compounds were serially diluted (3×) in neat DMSO and stored in a dessicator at room temperature. 5× compound stocks in 25% DMSO were prepared fresh from neat DMSO stocks. Wild-type (WT) and H1047R mutant protein, along with buffer components (except ATP), were incubated with or without compound at 27° C. for 1h. After incubation, the reaction was initiated by the addition of 5 uL of 125 uM ATP. A typical assay mixture (25 uL) comprised 40 mM HEPES buffer, pH 7.4, 25 mM MgCl2, 0.01% v/v triton-X-100, 5% v/v DMSO, 20 mM NaCl, 1-5 nM wt or H1047R, 25 uM ATP, and 50 uM PTP2diC8 or PTP2 in membrane. The reaction was allowed to proceed until about […] (2.5 uM ADP) after which time, 10 uL of reaction mixture was quenched with 25 uL of transcreener reagent (Transcreener ADP2 FI assay kit, BellBrook labs, Cat. No. 3013). The contents were incubated at rt for 1h and fluorescence was measured using a plate reader (Paradigm, Molecular Devices). The same assay was also run at pH 6.0 or 6.4 using MOPS buffer (Fisher BioReagents, CAS 1132-61-2). A calibration curve was generated under identical buffer conditions with varying ADP amounts. Using that, the observed fluorescence was converted to uM ADP. A plot between [ADP] and log[I] yielded the dose-response curves that enabled the calculation of IC50s.

Sequence of human full length PIK3CA Wild-type (p110α/p85α complex) (P42336 whole entry): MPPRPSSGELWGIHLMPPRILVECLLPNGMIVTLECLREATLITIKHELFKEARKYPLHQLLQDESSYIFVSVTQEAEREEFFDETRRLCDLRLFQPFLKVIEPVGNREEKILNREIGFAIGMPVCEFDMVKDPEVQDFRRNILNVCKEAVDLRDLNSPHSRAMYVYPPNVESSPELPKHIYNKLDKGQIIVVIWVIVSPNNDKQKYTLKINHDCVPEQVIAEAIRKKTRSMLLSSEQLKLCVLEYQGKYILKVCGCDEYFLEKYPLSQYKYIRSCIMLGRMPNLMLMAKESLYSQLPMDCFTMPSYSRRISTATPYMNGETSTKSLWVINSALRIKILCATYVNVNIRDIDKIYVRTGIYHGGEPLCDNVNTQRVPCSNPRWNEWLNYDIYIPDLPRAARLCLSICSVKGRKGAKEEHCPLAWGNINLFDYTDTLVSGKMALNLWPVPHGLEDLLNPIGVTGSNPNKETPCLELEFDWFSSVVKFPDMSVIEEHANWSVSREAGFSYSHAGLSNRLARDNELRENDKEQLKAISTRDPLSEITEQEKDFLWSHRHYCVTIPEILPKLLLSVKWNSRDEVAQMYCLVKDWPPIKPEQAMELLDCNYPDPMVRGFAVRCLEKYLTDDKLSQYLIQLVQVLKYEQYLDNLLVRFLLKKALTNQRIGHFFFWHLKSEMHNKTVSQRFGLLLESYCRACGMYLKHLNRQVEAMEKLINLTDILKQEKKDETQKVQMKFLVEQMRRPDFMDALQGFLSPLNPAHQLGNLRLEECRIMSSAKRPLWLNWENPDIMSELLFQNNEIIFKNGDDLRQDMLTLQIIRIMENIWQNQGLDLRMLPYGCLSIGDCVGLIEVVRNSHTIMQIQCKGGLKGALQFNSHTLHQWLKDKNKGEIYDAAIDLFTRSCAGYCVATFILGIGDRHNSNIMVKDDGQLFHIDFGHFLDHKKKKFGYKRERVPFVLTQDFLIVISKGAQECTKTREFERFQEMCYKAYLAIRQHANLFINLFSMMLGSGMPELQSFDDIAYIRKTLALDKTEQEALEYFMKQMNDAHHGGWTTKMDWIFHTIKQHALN
Sequence of human full length PIK3CA Wild-type (p110α/p85α complex) (P27986 whole entry partner): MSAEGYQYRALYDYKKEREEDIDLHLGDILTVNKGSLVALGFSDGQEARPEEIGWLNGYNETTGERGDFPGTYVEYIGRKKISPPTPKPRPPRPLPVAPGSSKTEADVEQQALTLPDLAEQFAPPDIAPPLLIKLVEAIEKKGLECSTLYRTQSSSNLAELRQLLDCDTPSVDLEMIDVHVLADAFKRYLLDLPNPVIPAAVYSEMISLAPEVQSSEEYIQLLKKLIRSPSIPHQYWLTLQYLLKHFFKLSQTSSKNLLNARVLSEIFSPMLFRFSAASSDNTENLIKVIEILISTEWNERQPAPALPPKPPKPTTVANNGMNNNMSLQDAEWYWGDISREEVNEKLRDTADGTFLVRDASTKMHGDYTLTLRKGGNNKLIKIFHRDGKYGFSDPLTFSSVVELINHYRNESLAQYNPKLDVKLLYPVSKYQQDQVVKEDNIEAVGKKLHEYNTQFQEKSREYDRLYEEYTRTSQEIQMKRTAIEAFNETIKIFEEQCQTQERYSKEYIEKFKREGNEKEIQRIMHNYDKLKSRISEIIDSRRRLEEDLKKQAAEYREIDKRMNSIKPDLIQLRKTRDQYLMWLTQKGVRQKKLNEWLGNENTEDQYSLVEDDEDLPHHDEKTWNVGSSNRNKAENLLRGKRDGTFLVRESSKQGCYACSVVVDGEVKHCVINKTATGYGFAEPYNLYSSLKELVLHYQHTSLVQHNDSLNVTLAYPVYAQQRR

IC50 [nM] | Structure (SMILES)
500 to 1000 | Cc1cc(C(C)Nc2ccccc2C(=O)O)c2oc(N3CCn4cccc4C3)cc(=O)c2c1 (centres unmarked) [Example 171, 2-[1-[2-(3,4-Dihydro-1H-pyrrolo[1,2-a]pyrazin-2-yl)-6-methyl-4-oxo-chromen-8-yl]ethylamino]benzoic acid]
5000 to 10000 | Cc1cc(C(C)Nc2ccccc2C(=O)O)c2oc(N3CC4(CCCCC4)C3)cc(=O)c2c1 (centres unmarked) [Example 88, 2-[1-[2-(2-Azaspiro[3.5]nonan-2-yl)-6-methyl-4-oxo-chromen-8-yl]ethylamino]benzoic acid]
1000 to 5000 | Cc1cc(C(C)Nc2ccc(Cl)nc2C(=O)O)c2oc(N3Cc4ccc(F)cc4C3)cc(=O)c2c1 (centres unmarked) [Example 297, 6-Chloro-3-[1-[2-(5-fluoroisoindolin-2-yl)-6-methyl-4-oxo-chromen-8-yl]ethylamino]pyridine-2-carboxylic acid]
5000 to 10000 | Cc1cc(C(C)Nc2ccccc2C(=O)O)c2oc(N3CCCC(C)(C)C3)cc(=O)c2c1 (centres unmarked) [Example 65, 2-[1-[2-(3,3-Dimethyl-1-piperidyl)-6-methyl-4-oxo-chromen-8-yl]ethylamino]benzoic acid]
500 to 1000 | Cc1cc([C@@H](C)Nc2ccccc2C(=O)O)c2oc(N3CC4(CCC4(F)F)C3)c(C)c(=O)c2c1 [Example 289, 2-[[(1R)-1-[2-(7,7-Difluoro-2-azaspiro[3.3]heptan-2-yl)-3,6-dimethyl-4-oxo-chromen-8-yl]ethyl]amino]benzoic acid]
1000 to 5000 | CC(Nc1ccccc1C(=O)O)c1cc(C(F)(F)F)cc2c(=O)cc(N3CCC(F)(F)CC3)oc12 (centres unmarked) [Example 396, 2-[1-[2-(4,4-Difluoro-1-piperidyl)-4-oxo-6-(trifluoromethyl)chromen-8-yl]ethylamino]benzoic acid 2,2,2-trifluoroacetic acid]
1000 to 5000 | CC(Nc1ccccc1C(=O)O)c1cc(F)cc2c(=O)cc(N3CCC4(CC3)CC4)oc12 (centres unmarked) [Example 398, 2-[1-[2-(6-Azaspiro[2.5]octan-6-yl)-6-fluoro-4-oxo-chromen-8-yl]ethylamino]benzoic acid 2,2,2-trifluoroacetic acid]
500 to 1000 | Cc1cc(C(C)Nc2ccc(Cl)nc2C(=O)O)c2oc(N3CCC4(CC3)CC4)c(C)c(=O)c2c1 (centres unmarked) [Example 302, 3-[1-[2-(6-Azaspiro[2.5]octan-6-yl)-3,6-dimethyl-4-oxo-chromen-8-yl]ethylamino]-6-chloro-pyridine-2-carboxylic acid]
1000 to 5000 | CC(Nc1ccccc1C(=O)O)c1cc(F)cc2c(=O)cc(N3CCC(F)(F)CC3)oc12 (centres unmarked) [Example 399]

Second part, the molecule before the results:

Structure (SMILES) | IC50 [nM]
Cc1cc(C(C)Nc2ccccc2C(=O)O)c2oc(N3CC(C(C)(F)F)C3)cc(=O)c2c1 (stereo not drawn) [Example 189, 2-[1-[2-[3-(1,1-Difluoroethyl)azetidin-l-yl]-6-methyl-4-oxo-chromen-8-yl]ethylamino]benzoic acid 2,2,2-trifluoroacetic acid] | 1000 to 5000
Cc1cc(C(C)Nc2ccccc2C(=O)O)c2oc(N3CC4CC(C4)C3)cc(=O)c2c1 (centres unmarked) [Example 177, 2-[1-[2-(3-Azabicyclo[3.1.1]heptan-3-yl)-6-methyl-4-oxo-chromen-8-yl]ethylamino]benzoic acid 2,2,2-trifluoroacetic acid] | 1000 to 5000
Cc1cc([C@@H](C)Nc2ccccc2C(=O)O)c2oc(N3CCC(C#N)(c4ccccc4)CC3)c(C)c(=O)c2c1 [Example 288, 2-[[(1R)-1-[2-(4-Cyano-4-phenyl-1-piperidyl)-3,6-dimethyl-4-oxo-chromen-8-yl]ethyl]amino]benzoic acid] | 500 to 1000
Cc1cc(C(C)Nc2ccccc2C(=O)O)c2oc(N3CCc4ccccc4C3)cc(=O)c2c1 (centres unmarked) [Example 233, 2-[1-[2-(3,4-Dihydro-1H-isoquinolin-2-yl)-6-methyl-4-oxo-chromen-8-yl]ethylamino]benzoic acid] | 1000 to 5000
Cc1cc(C(C)Nc2sc(Cl)nc2C(=O)O)c2oc(N3Cc4ccccc4C3)cc(=O)c2c1 (centres unmarked) [Example 245, 2-Chloro-5-[1-(2-isoindolin-2-yl-6-methyl-4-oxo-chromen-8-yl)ethylamino]thiazole-4-carboxylic acid 2,2,2-trifluoroacetic acid] | 500 to 1000
CCc1c(N2CCC(C)(C)CC2)oc2c(C(C)Nc3ccccc3C(=O)O)cc(C)cc2c1=O (centres unmarked) [Example 55, 2-[1-[2-(4,4-dimethyl-1-piperidyl)-3-ethyl-6-methyl-4-oxo-chromen-8-yl]ethylamino]benzoic acid] | 1000 to 5000
Cc1cc(C(C)Nc2ccccc2C(=O)O)c2oc(N3Cc4ccc(F)cc4C3)cc(=O)c2c1 (centres unmarked) [Example 105, 2-[1-[2-(5-Fluoroisoindolin-2-yl)-6-methyl-4-oxo-chromen-8-yl]ethylamino]benzoic acid] | 5000 to 10000
Cc1cc(C(C)Nc2ccc(Cl)nc2C(=O)O)c2oc(N3Cc4ccc5c(c4C3)OCO5)cc(=O)c2c1 (centres unmarked) [Example 299, 6-Chloro-3-[1-[2-(6,8-dihydro-[1,3]dioxolo[4,5-e]isoindol-7-yl)-6-methyl-4-oxo-chromen-8-yl]ethylamino]pyridine-2-carboxylic acid] | 500 to 1000

Target: human full length PIK3CA H1047R mutant (p110α/p85α complex) (Homo sapiens (Human), UniProt P42336, H1047R)
Sequence (P42336 whole entry H1047R): as the sequence (P42336 whole entry) above, with H1047R counted along it
Sequence (P27986 whole entry partner): as the sequence (P27986 whole entry partner) above
Assay: PI3K-Alpha kinase (PIK3CA) activity, H1047R mutant, Transcreener ADP2 FI assay
Conditions: PI3K-α (PIK3CA) H1047R mutant, biochemical
Method: as §1, §2

IC50 [nM] | Structure (SMILES)
1000 to 5000 | Cc1cc(C(C)Nc2ccccc2C(=O)O)c2oc(NC34CC5CC(CC(CO)(C5)C3)C4)cc(=O)c2c1 (centres unmarked) [Example 169]
1000 to 5000 | Cc1cc(C(C)Nc2ccccc2C(=O)O)c2oc(N3CCCC4(CNC(=O)C4)C3)cc(=O)c2c1 (centres unmarked) [Example 61, 2-[1-[6-Methyl-4-oxo-2-(3-oxo-2,7-diazaspiro[4.5]decan-7-yl)chromen-8-yl]ethylamino]benzoic acid]
1000 to 5000 | Cc1cc(C(C)Nc2ccsc2C(=O)O)c2oc(N3CCC(C)(C)CC3)cc(=O)c2c1 (centres unmarked) [Example 39, 3-[1-[2-(4,4-Dimethyl-1-piperidyl)-6-methyl-4-oxo-chromen-8-yl]ethylamino]thiophene-2-carboxylic acid]
500 to 1000 | COC1CCN(c2cc(=O)c3cc(C)cc(C(C)Nc4ccccc4C(=O)O)c3o2)CC1 (centres unmarked) [Example 373, 2-[1-[2-(4-Methoxy-1-piperidyl)-6-methyl-4-oxo-chromen-8-yl]ethylamino]benzoic acid]
1000 to 5000 | Cc1cc(C(C)Nc2cccc(F)c2C(=O)O)c2oc(N3Cc4ccc(F)cc4C3)cc(=O)c2c1 (centres unmarked) [Example 238, 2-Fluoro-6-[1-[2-(5-fluoroisoindolin-2-yl)-6-methyl-4-oxo-chromen-8-yl]ethylamino]benzoic acid]

More lines, now with the values behind:

Structure (SMILES) | IC50 [nM]
Cc1cc(C(C)Nc2ccccc2C(=O)O)c2oc(N3CCn4cnnc4C3)cc(=O)c2c1 (centres unmarked) [Example 163, 2-[1-[2-(6,8-Dihydro-5H-[1,2,4]triazolo[4,3-a]pyrazin-7-yl)-6-methyl-4-oxo-chromen-8-yl]ethylamino]benzoic acid] | 1000 to 5000
COc1ccc(NC(C)c2cc(C)cc3c(=O)cc(N4Cc5ccccc5C4)oc23)c(C(=O)O)n1 (centres unmarked) [Example 237, 3-[1-(2-Isoindolin-2-yl-6-methyl-4-oxo-chromen-8-yl)ethylamino]-6-methoxy-pyridine-2-carboxylic acid] | 5000 to 10000
Cc1cc(C(C)Nc2ccccc2C(=O)O)c2oc(N3CC4CCC(C3)O4)cc(=O)c2c1 (centres unmarked) [Example 82, 2-[1-[6-Methyl-2-(8-oxa-3-azabicyclo[3.2.1]octan-3-yl)-4-oxo-chromen-8-yl]ethylamino]benzoic acid] | 1000 to 5000
Cc1cc(C(C)Nc2ccccc2C(=O)O)c2oc(N3CC(N(C)C)C3)cc(=O)c2c1 (centres unmarked) [Example 68, 2-[1-[2-[3-(Dimethylamino)azetidin-1-yl]-6-methyl-4-oxo-chromen-8-yl]ethylamino]benzoic acid] | 1000 to 5000

— patent US11649227B2, “Allosteric chromenone inhibitors of phosphoinositide 3-kinase (PI3K) for the treatment of disease” (Petra Pharma Corporation, priority 2020, dated 2023)
